Source: patent publication US20090005373A1, “SUBSTITUTED SULFONAMIDO-MACROCYCLES AS TIE2 INHIBITORS AND SALTS THEREOF, PHARMACEUTICAL COMPOSITIONS COMPRISING SAME, METHODS OF PREPARING SAME AND USES OF SAME” (priority 2006, published 2009)

Tests used:
Format in all cases: biochemical
Plk1 = target: T1, Plk1 (Homo sapiens, UniProt P53350); experiment: Plk1 Inhibition Assay, SPA (assay 6); details: ATP 0.5 μM
T1 construct: N-terminally 6His-tagged full length Plk1; 6His (N); made in house
Description: Assay 6: Plk1 Inhibition Assay
Plk1 phosphorylates serine/threonine residues of the biotinylated substrate bovine α-casein in the presence of [γ-^33P]ATP. Detection of the radiolabeled phosphorylated product is achieved by binding to streptavidine-coated SPA beads. The biotin moieties of biotinylated casein bind with high affinity to the streptavidine. The radiolabeled biotinylated casein produced by the Plk1 kinase reaction is able to generate a chemoluminescent signal when strepatavidine-mediated binding occurs to the scintillant-containing surface of the beads due to the close proximity of the radiolabel and the scintillant. […] The signals obtained are therefore indicative of the Plk1 kinase activity. Measurement is performed in a Perkin-Elmer TopCount instrument.
Enzyme: Purified human recombinant PLK1 [N-terminally 6His-tagged full length Plk1], prepared in house, conc.: 0.4 μg/μl Substrate: biotinylated bovine α-casein. Unbiotinylated casein obtained from Sigma was biotinylated by standard procedures using N-hydroxysuccinimide (NHS) ester of biotin. SPA-beads: PVT streptavidin SPA Beads, Amersham (# RPNQ0007) Reference compound: Wortmannin Assay plates: 384-well plates, small volume, white, Greiner (#784075) Buffer Materials Hepes: Sigma (# H-4034), MnCl2: Sigma (# M-1787), MgCl2: Sigma [# M-1028], NaCl: Merck [#1.06404.100], DTT: Biomol (#04010), NP40: Fluka (#74385), Complete EDTA-free: Roche [#1873580], ATP: Amersham (#27-2056), 33P-gamma-ATP: Perkin Elmer (Easytides # NEG/602H), EDTA: Sigma (# E-7889), PBS: Gibco (#14190-094), ATP for stopping solution: Sigma #(A-7699), DMSO: Merck [#8.02912.1000] Sealing tape: Greiner (#676080) Reader: TopCount instrument (PerkinElmer)
Assay buffer: 2.5 mM MnCl2, 5 mM MgCl2, 120 mM NaCl, 1 mM DTT, 50 mM Hepes pH 7.0, 0.01% NP40, 1× Complete (protease inhibitor cocktail) Enzyme working solution: 2.86 ng/μl PLK1 in assay buffer Substrate working solution: 1 μM ATP, 1.4 μM biotinylated a-Casein, 2.0 nCi/μl in assay buffer Stop/Detection solution: 50 μM ATP, 20 mM EDTA, 5 μg/μl beads in PBS 3. Assay protocol for small volume screen (all steps at 20° C., pipetted with CyBi-Well pipettor) • 1. 0.75 μl Compound in 30% or 100% DMSO • 2. addition of 3.5 μl Enzyme working solution • 3. addition of 3.5 μl Substrate working solution incubation 180 min • 4. addition of 10 μl Stop/Detection solution • 5. sealing of the plates, incubation 30 min, 10 min centrifugation at 1500 rpm • 6. Measurement in TopCount reader (60 sec/well)
Final concentrations, calculated for 7 μl reaction volume: PLK1 10 ng/well; a-Casein 0.7 μM; ATP 0.5 μM; gamma-33P-ATP 7 nCi/well, 2.5 mM MnCl2, 5 mM MgCl2, 120 mM NaCl, 1 mM DTT, 50 mM Hepes pH 7.0, 0.01% NP40, 1× Complete, 3% or 10% DMSO
The data were normalised (enzyme reaction without inhibitor=0% inhibition, enzyme reaction in the presence of 3.0 E-06 M wortmannin=100% inhibition) and IC50 values were calculated by a 4-parameter fit using an in house software.

Tie-2 = target: T2, Tie-2 (Homo sapiens, UniProt Q02763); experiment: Tie-2-Kinase HTRF-Assay without Kinase Preactivation (assay 2); details: 10 μM ATP, no kinase preactivation
T2 construct: A recombinant fusion protein of GST and the intracellular domains of Tie-2, expressed in insect cells (Hi-5); GST; made in house; host or cells: Hi-5 insect cells
T2 sequence (Q02763 770-1124 limits assumed): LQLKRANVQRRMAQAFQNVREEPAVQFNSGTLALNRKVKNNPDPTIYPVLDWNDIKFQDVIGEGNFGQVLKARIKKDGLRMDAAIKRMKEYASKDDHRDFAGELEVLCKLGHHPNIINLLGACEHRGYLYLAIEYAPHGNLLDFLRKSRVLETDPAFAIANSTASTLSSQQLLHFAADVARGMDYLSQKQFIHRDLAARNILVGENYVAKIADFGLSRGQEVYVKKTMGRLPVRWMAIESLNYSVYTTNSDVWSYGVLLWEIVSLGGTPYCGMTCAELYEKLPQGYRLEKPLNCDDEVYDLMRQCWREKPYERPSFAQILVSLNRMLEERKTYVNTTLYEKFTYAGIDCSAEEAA
Description: Tie2-inhibitory activity of compounds of the present invention was quantified employing two Tie2 HTRF assay as described in the following paragraphs.
A recombinant fusion protein of GST and the intracellular domains of Tie-2, expressed in insect cells (Hi-5) and purified by Glutathion-Sepharose affinity chromatography was used as kinase. Alternatively, commercially available GST-Tie2-fusion protein (Upstate Biotechnology, Dundee, Scotland) can be used As substrate for the kinase reaction the biotinylated peptide biotin-Ahx-EPKDDAYPLYSDFG (C-terminus in amid form) was used which can be purchased e.g. from the company Biosynthan GmbH (Berlin-Buch, Germany). Detection of phosphorylated product is achieved specifically by a trimeric detection complex consisting of the phosphorylated substrate, streptavidin-XLent (SA-XLent) which binds to biotin, and Europium Cryptate-labeled anti-phosphotyrosine antibody PT66 which binds to phosphorylated tyrosine.
Tie-2 (3.5 ng/measurement point) was incubated for 60 min at 22° C. in the presence of 10 μM adenosine-tri-phosphate (ATP) and 1 μM substrate peptide (biotin-Ahx-EPKDDAYPLYSDFG-NH2) with different concentrations of test compounds (0 μM and concentrations in the range 0.001-20 μM) in 5 μl assay buffer [50 mM Hepes/NaOH pH 7, 10 mM MgCl2, 0.5 mM MnCl2, 1.0 mM dithiothreitol, 0.01% NP40, protease inhibitor mixture (“Complete w/o EDTA” from Roche, 1 tablet per 2.5 ml), 1% (v/v) dimethylsulfoxide]. The reaction was stopped by the addition of 5 μl of an aqueous buffer (25 mM Hepes/NaOH pH 7.5, 0.28% (w/v) bovine serum albumin) containing EDTA (90 mM) and the HTRF (Homogeneous Time Resolved Fluorescence) detection reagents streptavidine-XLent (0.2 μM, from Cis Biointernational, Marcoule, France) and PT66-Eu-Chelate (0.3 ng/μl; a europium-chelate labelled anti-phospho-tyrosine antibody from Perkin Elmer).
(§1) The resulting mixture was incubated 1 h at 22° C. to allow the binding of the biotinylated phosphorylated peptide to the streptavidine-XLent and the PT66-Eu-Chelate. Subsequently the amount of phosphorylated substrate peptide was evaluated by measurement of the resonance energy transfer from the PT66-Eu-Chelate to the streptavidine-XLent. Therefore, the fluorescence emissions at 620 nm and 665 nm after excitation at 350 nm was measured in a HTRF reader, e.g. a Rubystar (BMG Labtechnologies, Offenburg, Germany) or a Viewlux (Perkin-Elmer). The ratio of the emissions at 665 nm and at […] was taken as the measure for the amount of phosphorylated substrate peptide. The data were normalised (enzyme reaction without inhibitor=0% inhibition, all other assay components but no enzyme=100% inhibition) and IC50 values were calculated by a 4 parameter fit using an inhouse software.

human KDR = target: T3, human KDR (Homo sapiens, UniProt P35968); experiment: KDR Kinase Assay, HTRF (assay 5); details: 10 μM ATP
T3 construct: GST-tagged recombinant kinase domain of the human KDR; GST; host or cells: SF-9 insect cells
T3 sequence (P35968 834-1162 limits assumed): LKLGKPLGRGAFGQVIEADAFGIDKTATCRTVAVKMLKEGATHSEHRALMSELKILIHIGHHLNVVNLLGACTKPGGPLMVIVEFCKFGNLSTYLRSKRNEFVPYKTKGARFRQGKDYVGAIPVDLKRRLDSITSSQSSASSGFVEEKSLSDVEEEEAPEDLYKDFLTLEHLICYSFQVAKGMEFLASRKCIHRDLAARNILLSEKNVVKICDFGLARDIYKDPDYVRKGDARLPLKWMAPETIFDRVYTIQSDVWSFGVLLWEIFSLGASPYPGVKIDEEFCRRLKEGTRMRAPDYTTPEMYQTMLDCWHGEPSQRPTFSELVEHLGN
Procedure: Assay 5: KDR Kinase Assay
KDR inhibitory activity of compounds of the present invention was quantified employing the KDR HTRF assay as described in the following paragraphs.
GST-tagged recombinant kinase domain of the human KDR expressed in SF-9 cells was used as kinase. As substrate for the kinase reaction the biotinylated peptide biotin-Ahx-DFGLARDMYDKEYYSVG (C-terminus in acid form) was used which can be purchased e.g. form the company Biosynthan GmbH (Berlin-Buch, Germany). KDR was incubated for 45 min at 22° C. in the presence of different concentrations of test compounds in 5 μl assay buffer [50 mM Hepes/NaOH pH 7.0, 25 mM MgCl2, 5 mM MnCl2, 1.0 mM dithiothreitol, 0.1 mM sodium ortho-vanadate, 10 μM adenosine-tri-phosphate (ATP), 0.5 μM substrate, 0.001% (v/v) Nonidet-P40 (Sigma), 1% (v/v) dimethylsulfoxide]. The concentration of KDR was adjusted depending of the activity of the enzyme lot and was chosen appropriate to have the assay in the linear range. The reaction was stopped by the addition of 5 μl of a solution of HTRF detection reagents (0.1 μM streptavidine-XLent and 2 nM PT66-Eu-Chelate, an europium-chelate labelled anti-phospho-tyrosine antibody from Perkin Elmer) in an aqueous EDTA-solution (125 mM EDTA, 0.2% (w/v) bovine serum albumin in 50 mM HEPES/NaOH pH 7.0).
as §1, with “substrate” for “substrate peptide”, “substrate.” for “substrate peptide.”

CDK2/CycE = target: T4, CDK2/CycE (Homo sapiens, UniProt P24941); experiment: CDK2 HTRF Assay (assay 4); details: pIC50 = −log IC50 in molar concentration; 10 μM ATP
T4 construct: GST; purchased ProQinase GmbH (Freiburg, Germany); host or cells: Sf9 insect cells
Description: CDK2/CycE—inhibitory activity of compounds of the present invention was quantified employing the CDK2/CycE HTRF assay as described in the following paragraphs.
Recombinant fusion proteins of GST and human CDK2 and of GST and human CycE, expressed in insect cells (Sf9) and purified by Glutathion-Sepharose affinity chromatography, were purchase from ProQinase GmbH (Freiburg, Germany). As substrate for the kinase reaction biotinylated peptide biotin-Ttds-YISPLKSPYKISEG (C-terminus in amid form) was used which can be purchased e.g. form the company JERINI peptide technologies (Berlin, Germany).
CDK2/CycE was incubated for 60 min at 22° C. in the presence of different concentrations of test compounds in 5 μl assay buffer [50 mM Tris/HCl pH […], 1.0 mM dithiothreitol, 0.1 mM sodium ortho-vanadate, 10 μM adenosine-tri-phosphate (ATP), 0.75 μM substrate, 0.01% (v/v) Nonidet-P40 (Sigma), 1% (v/v) dimethylsulfoxide]. The concentration of CDK2/CycE was adjusted depending of the activity of the enzyme lot and was chosen appropriate to have the assay in the linear range, typical concentrations were in the range of 1 ng/ml. The reaction was stopped by the addition of 5 μl of a solution of HTRF detection reagents (0.2 μM streptavidine-XLent and 3.4 nM Phospho-(Ser) CDKs Substrate Antibody [product #2324B, Cell Signalling Technology, Danvers, Mass., USA} and 4 nM Prot-A-EuK [Protein A labeled with Europium Cryptate from Cis biointernational, France, product no. 61PRAKLB]) in an aqueous EDTA-solution (100 mM EDTA, 800 mM KF, 0.2% (w/v) bovine serum albumin in 100 mM HEPES/NaOH pH 7.0).

T1 sequence (P53350 whole entry): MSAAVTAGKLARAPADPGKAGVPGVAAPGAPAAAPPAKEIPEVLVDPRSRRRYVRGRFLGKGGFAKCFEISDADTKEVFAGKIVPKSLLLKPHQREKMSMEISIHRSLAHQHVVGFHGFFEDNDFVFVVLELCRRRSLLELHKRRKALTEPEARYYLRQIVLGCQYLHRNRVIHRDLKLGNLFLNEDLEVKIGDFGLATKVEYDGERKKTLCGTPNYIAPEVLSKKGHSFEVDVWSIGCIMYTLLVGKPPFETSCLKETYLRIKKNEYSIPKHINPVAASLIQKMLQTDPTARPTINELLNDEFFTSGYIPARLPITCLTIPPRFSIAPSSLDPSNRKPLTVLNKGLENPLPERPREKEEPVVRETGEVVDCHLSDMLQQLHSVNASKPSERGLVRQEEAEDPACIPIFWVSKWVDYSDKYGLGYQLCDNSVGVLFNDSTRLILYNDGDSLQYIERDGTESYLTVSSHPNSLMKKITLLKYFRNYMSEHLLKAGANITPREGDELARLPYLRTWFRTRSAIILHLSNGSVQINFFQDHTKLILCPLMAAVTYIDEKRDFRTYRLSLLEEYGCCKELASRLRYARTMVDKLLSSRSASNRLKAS

For `O=C(NCC#Cc1cnc2nc1NCCCNS(=O)(=O)c1cccc(c1)N2)Nc1cccc(C(F)(F)F)c1` [Example 4, 1-[3-(13,13-Dioxo-13λ^6-thia-2,4,8,12,19-pentaaza-tricyclo[12.3.1.1^3,7]-nonadeca-1(18),3(19),4,6,14,16-hexaen-6-yl)-prop-2-ynyl]-3-(3-trifluoromethyl-phenyl)-urea], the IC50 (Plk1) was > 10 µM, the IC50 (Tie-2) was ≤ 0.1 µM and the IC50 (human KDR) was ≤ 0.1 µM. The IC50 (CDK2/CycE) was > 10 µM.

For `O=C(NCCC#Cc1cnc2nc1NCCCNS(=O)(=O)c1cccc(c1)N2)Nc1ccccc1` [Example 6, 1-[4-(13,13-Dioxo-13λ^6-thia-2,4,8,12,19-pentaaza-tricyclo[12.3.1.1^3,7]-nonadeca-1(18),3(19),4,6,14,16-hexaen-6-yl)-but-3-ynyl]-3-phenyl-urea], the IC50 (Plk1) was > 10 µM, the IC50 (Tie-2) was 0.1 to 1 µM and the IC50 (human KDR) was ≤ 0.1 µM. For the same molecule, the IC50 (CDK2/CycE) was 1 to 10 µM.

For `O=S1(=O)NCCCNc2nc(ncc2C#CCNS(=O)(=O)c2cccc(Cl)c2Cl)Nc2cccc1c2` [Example 8, 2,3-Dichloro-N-[3-(13,13-dioxo-13λ^6-thia-2,4,8,12,19-pentaaza-tricyclo[12.3.1.1^3,7]-nonadeca-1(18),3(19),4,6,14,16-hexaen-6-yl)-prop-2-ynyl]-benzenesulfonamide], the IC50 (Plk1) was > 10 µM, the IC50 (Tie-2) was 0.1 to 1 µM and the IC50 (human KDR) was ≤ 0.1 µM. For the same molecule, the IC50 (CDK2/CycE) was 1 to 10 µM.

With `Cc1ccc(F)c(S(=O)(=O)NCCC#Cc2cnc3nc2NCCCNS(=O)(=O)c2cccc(c2)N3)c1` [Example 13, N-[4-(13,13-Dioxo-13λ^6-thia-2,4,8,12,19-pentaaza-tricyclo[12.3.1.1^3,7]-nonadeca-1(18),3(19),4,6,14,16-hexaen-6-yl)-but-3-ynyl]-2-fluoro-5-methyl-benzene-sulfonamide] the IC50 (Plk1) was > 10 µM, the IC50 (Tie-2) was ≤ 0.1 µM and the IC50 (human KDR) was ≤ 0.1 µM. For the same molecule, the IC50 (CDK2/CycE) was > 10 µM.

With `O=C(NCC#Cc1cnc2nc1NCCCNS(=O)(=O)c1cccc(c1)N2)NCc1ccccc1` [Example 5, 1-Benzyl-3-[3-(13,13-dioxo-13λ^6-thia-2,4,8,12,19-pentaaza-tricyclo[12.3.1.1^3,7]-nonadeca-1(18),3(19),4,6,14,16-hexaen-6-yl)-prop-2-ynyl]-urea] the IC50 (Plk1) was > 10 µM, the IC50 (Tie-2) was ≤ 0.1 µM and the IC50 (human KDR) was 0.1 to 1 µM. The IC50 (CDK2/CycE) was > 10 µM.
